# Literature values as cited in PubChem BioAssay AID1259409 (Chemical Carcinogenesis Research Information System (CCRIS), 2018).
# Tested on: rodent chemically induced tumor inhibition, incidence and multiplicity
# Test: CCRIS tumor inhibitor studies
# Settings: Dose [Inhibitor]: 0
smiles,measurement,setting,value
CC(C)=CCC/C(C)=C/C=C/C(C)=C/C=C/C(C)=C/C=C/C=C(C)/C=C/C=C(C)/C=C/C=C(\C)CCC=C(C)C,"tumour outcome (control, treated, inhibition, significance)","Carcinogen: 7,12-DIMETHYLBENZ[A]ANTHRACENE, 57-97-6, 2.5 MG/KG ON DAYS ALTERNATE TO CARCINOGEN APPLICATION FOR STUDY DURATION (STUDY DURATION: 14 WK), Route [Inhibitor]: GAVAGE, Species: HAMSTER, Strain/Sex: SYRIAN/MALE, Target Tissue: Type of Lesion: BUCCAL POUCH: SQUAMOUS CELL CARCINOMA, Dose [Carcinogen]: 0.5% IN LIQUID PARAFFIN ON RIGHT BUCCAL POUCH 3X/WK FOR 14 WK, Promoter: NONE USED","6/6 (100%), 0/6 (0%), 100%, not calculated"
same,"tumour outcome (control, treated, inhibition, significance)","Carcinogen: DIETHYLNITROSAMINE: 55-18-5, N-METHYL-N-NITROSOUREA, 684-93-5, 1,2-DIMETHYLHYDRAZINE, 540-73-8, Carcinogen: DIETHYLNITROSAMINE: 55-18-5, N-METHYL-N-NITROSOUREA, 684-93-5, 1,2-DIMETHYLHYDRAZINE, 540-73-8, 25 PPM IN DIET FOR 21 WK BEGINNING 2 WK POST CARCINOGEN TREATMENT (STUDY DURATION: 213 D), Route [Inhibitor]: ORAL, Species: MOUSE, Strain/Sex: B6C3F1/FEMALE, Target Tissue: Type of Lesion: LUNG: ADENOMA, Dose [Carcinogen]: 10 MG/KG BW DEN TWICE ON DAYS 1 AND 21, 120 PPM MNU IN DRINKING WATER DURING WKS 4-9, 20 MG/KG BW DMH 2/WK DURING WKS 4-, Dose [Carcinogen]: 10 MG/KG BW DEN TWICE ON DAYS 1 AND 21, 120 PPM MNU IN DRINKING WATER DURING WKS 4-9, 20 MG/KG BW DMH 2/WK DURING WKS 4-","6/16 (38%), 3/16 (19%), 50%, not significant"
same,outcome,"Carcinogen: DIETHYLNITROSAMINE: 55-18-5, N-METHYL-N-NITROSOUREA, 684-93-5, 1,2-DIMETHYLHYDRAZINE, 540-73-8, Carcinogen: DIETHYLNITROSAMINE: 55-18-5, N-METHYL-N-NITROSOUREA, 684-93-5, 1,2-DIMETHYLHYDRAZINE, 540-73-8, 25 PPM IN DIET FOR 21 WK BEGINNING 2 WK POST CARCINOGEN TREATMENT (STUDY DURATION: 213 D), Route [Inhibitor]: ORAL, Species: MOUSE, Strain/Sex: B6C3F1/FEMALE, Target Tissue: Type of Lesion: LUNG: CARCINOMA, Dose [Carcinogen]: 10 MG/KG BW DEN TWICE ON DAYS 1 AND 21, 120 PPM MNU IN DRINKING WATER DURING WKS 4-9, 20 MG/KG BW DMH 2/WK DURING WKS 4-, Dose [Carcinogen]: 10 MG/KG BW DEN TWICE ON DAYS 1 AND 21, 120 PPM MNU IN DRINKING WATER DURING WKS 4-9, 20 MG/KG BW DMH 2/WK DURING WKS 4-","0/16 (0%), 0/16 (0%), 0%, not significant"
same,"tumour outcome (control, treated, inhibition, significance)","Carcinogen: DIETHYLNITROSAMINE: 55-18-5, N-METHYL-N-NITROSOUREA, 684-93-5, 1,2-DIMETHYLHYDRAZINE, 540-73-8, Carcinogen: DIETHYLNITROSAMINE: 55-18-5, N-METHYL-N-NITROSOUREA, 684-93-5, 1,2-DIMETHYLHYDRAZINE, 540-73-8, 25 PPM IN DIET FOR 21 WK BEGINNING 2 WK POST CARCINOGEN TREATMENT (STUDY DURATION: 213 D), Route [Inhibitor]: ORAL, Species: MOUSE, Strain/Sex: B6C3F1/MALE, Target Tissue: Type of Lesion: LUNG: ADENOMA, Dose [Carcinogen]: 10 MG/KG BW DEN TWICE ON DAYS 1 AND 21, 120 PPM MNU IN DRINKING WATER DURING WKS 4-9, 20 MG/KG BW DMH 2/WK DURING WKS 4-, Dose [Carcinogen]: 10 MG/KG BW DEN TWICE ON DAYS 1 AND 21, 120 PPM MNU IN DRINKING WATER DURING WKS 4-9, 20 MG/KG BW DMH 2/WK DURING WKS 4-","11/16 (69%), 11/15 (69%), 0%, not significant"
same,"tumour outcome (control, treated, inhibition, significance)","Carcinogen: DIETHYLNITROSAMINE: 55-18-5, N-METHYL-N-NITROSOUREA, 684-93-5, 1,2-DIMETHYLHYDRAZINE, 540-73-8, Carcinogen: DIETHYLNITROSAMINE: 55-18-5, N-METHYL-N-NITROSOUREA, 684-93-5, 1,2-DIMETHYLHYDRAZINE, 540-73-8, 25 PPM IN DIET FOR 21 WK BEGINNING 2 WK POST CARCINOGEN TREATMENT (STUDY DURATION: 213 D), Route [Inhibitor]: ORAL, Species: MOUSE, Strain/Sex: B6C3F1/MALE, Target Tissue: Type of Lesion: LUNG: CARCINOMA, Dose [Carcinogen]: 10 MG/KG BW DEN TWICE ON DAYS 1 AND 21, 120 PPM MNU IN DRINKING WATER DURING WKS 4-9, 20 MG/KG BW DMH 2/WK DURING WKS 4-, Dose [Carcinogen]: 10 MG/KG BW DEN TWICE ON DAYS 1 AND 21, 120 PPM MNU IN DRINKING WATER DURING WKS 4-9, 20 MG/KG BW DMH 2/WK DURING WKS 4-","1/16 (6%), 2/16 (12%), -98%, not significant"
same,"tumour outcome (control, treated, inhibition, significance)","Carcinogen: DIETHYLNITROSAMINE: 55-18-5, N-METHYL-N-NITROSOUREA, 684-93-5, 1,2-DIMETHYLHYDRAZINE, 540-73-8, Carcinogen: DIETHYLNITROSAMINE: 55-18-5, N-METHYL-N-NITROSOUREA, 684-93-5, 1,2-DIMETHYLHYDRAZINE, 540-73-8, 50 PPM IN DIET FOR 21 WK BEGINNING 2 WK POST CARCINOGEN TREATMENT (STUDY DURATION: 213 D), Route [Inhibitor]: ORAL, Species: MOUSE, Strain/Sex: B6C3F1/FEMALE, Target Tissue: Type of Lesion: LUNG: ADENOMA, Dose [Carcinogen]: 10 MG/KG BW DEN TWICE ON DAYS 1 AND 21, 120 PPM MNU IN DRINKING WATER DURING WKS 4-9, 20 MG/KG BW DMH 2/WK DURING WKS 4-, Dose [Carcinogen]: 10 MG/KG BW DEN TWICE ON DAYS 1 AND 21, 120 PPM MNU IN DRINKING WATER DURING WKS 4-9, 20 MG/KG BW DMH 2/WK DURING WKS 4-","6/16 (37%), 8/15 (53%), -42%, not significant"
same,outcome,"Carcinogen: DIETHYLNITROSAMINE: 55-18-5, N-METHYL-N-NITROSOUREA, 684-93-5, 1,2-DIMETHYLHYDRAZINE, 540-73-8, Carcinogen: DIETHYLNITROSAMINE: 55-18-5, N-METHYL-N-NITROSOUREA, 684-93-5, 1,2-DIMETHYLHYDRAZINE, 540-73-8, 50 PPM IN DIET FOR 21 WK BEGINNING 2 WK POST CARCINOGEN TREATMENT (STUDY DURATION: 213 D), Route [Inhibitor]: ORAL, Species: MOUSE, Strain/Sex: B6C3F1/FEMALE, Target Tissue: Type of Lesion: LUNG: CARCINOMA, Dose [Carcinogen]: 10 MG/KG BW DEN TWICE ON DAYS 1 AND 21, 120 PPM MNU IN DRINKING WATER DURING WKS 4-9, 20 MG/KG BW DMH 2/WK DURING WKS 4-, Dose [Carcinogen]: 10 MG/KG BW DEN TWICE ON DAYS 1 AND 21, 120 PPM MNU IN DRINKING WATER DURING WKS 4-9, 20 MG/KG BW DMH 2/WK DURING WKS 4-","0/16 (0%), 0/15 (0%), 0%, not significant"
same,"tumour outcome (control, treated, inhibition, significance)","Carcinogen: DIETHYLNITROSAMINE: 55-18-5, N-METHYL-N-NITROSOUREA, 684-93-5, 1,2-DIMETHYLHYDRAZINE, 540-73-8, Carcinogen: DIETHYLNITROSAMINE: 55-18-5, N-METHYL-N-NITROSOUREA, 684-93-5, 1,2-DIMETHYLHYDRAZINE, 540-73-8, 50 PPM IN DIET FOR 21 WK BEGINNING 2 WK POST CARCINOGEN TREATMENT (STUDY DURATION: 213 D), Route [Inhibitor]: ORAL, Species: MOUSE, Strain/Sex: B6C3F1/MALE, Target Tissue: Type of Lesion: LUNG: ADENOMA, Dose [Carcinogen]: 10 MG/KG BW DEN TWICE ON DAYS 1 AND 21, 120 PPM MNU IN DRINKING WATER DURING WKS 4-9, 20 MG/KG BW DMH 2/WK DURING WKS 4-, Dose [Carcinogen]: 10 MG/KG BW DEN TWICE ON DAYS 1 AND 21, 120 PPM MNU IN DRINKING WATER DURING WKS 4-9, 20 MG/KG BW DMH 2/WK DURING WKS 4-","11/16 (69%), 3/16 (19%), 73%, not significant"
same,"tumour outcome (control, treated, inhibition, significance)","Carcinogen: DIETHYLNITROSAMINE: 55-18-5, N-METHYL-N-NITROSOUREA, 684-93-5, 1,2-DIMETHYLHYDRAZINE, 540-73-8, Carcinogen: DIETHYLNITROSAMINE: 55-18-5, N-METHYL-N-NITROSOUREA, 684-93-5, 1,2-DIMETHYLHYDRAZINE, 540-73-8, 50 PPM IN DIET FOR 21 WK BEGINNING 2 WK POST CARCINOGEN TREATMENT (STUDY DURATION: 213 D), Route [Inhibitor]: ORAL, Species: MOUSE, Strain/Sex: B6C3F1/MALE, Target Tissue: Type of Lesion: LUNG: CARCINOMA, Dose [Carcinogen]: 10 MG/KG BW DEN TWICE ON DAYS 1 AND 21, 120 PPM MNU IN DRINKING WATER DURING WKS 4-9, 20 MG/KG BW DMH 2/WK DURING WKS 4-, Dose [Carcinogen]: 10 MG/KG BW DEN TWICE ON DAYS 1 AND 21, 120 PPM MNU IN DRINKING WATER DURING WKS 4-9, 20 MG/KG BW DMH 2/WK DURING WKS 4-","1/16 (6%), 0/16 (0%), 100%, not significant"
same,"tumour outcome (control, treated, inhibition, significance)","Carcinogen: DIETHYLNITROSAMINE, 55-18-5, N-METHYL-N-NITROSOUREA, 684-93-5, 1,2-DIMETHYLHYDRAZINE, 306-37-6, Carcinogen: DIETHYLNITROSAMINE, 55-18-5, N-METHYL-N-NITROSOUREA, 684-93-5, 1,2-DIMETHYLHYDRAZINE, 306-37-6, 25 PPM IN DRINKING WATER FOR 21 WK BEGINNING 2 WK POST CARCINOGEN TREATMENT (STUDY DURATION: 32 WK), Route [Inhibitor]: ORAL, Species: MOUSE, Strain/Sex: B6C3F1/FEMALE, Target Tissue: Type of Lesion: LUNG: ADENOMA, Dose [Carcinogen]: 10 MG/KG BW DEN ON DAYS 11 AND 32 OF AGE, 120 PPM MNU IN DRINKING WATER FROM WKS 4 TO 9, 20 MG/KG BW DMH 2/WK FOR 5 WK, Promoter: NONE USED","6/16 (38%), 3/16 (19%), 50%, not significant"
